6 molecules from patent US20260049140A1 (Janux Therapeutics, Inc., priority 2023, published 2026) can be followed below.

Like-named read-outs stand apart in the source and are kept apart here.

For the assay, the target named is wild-type and mutant CD3 binding domains harbored within TROP2 TCE constructs. Put plainly: ELISA binding of peptide masks to wild-type and mutated TROP2 TCEs. Conditions: captured biotinylated peptide or CD3-biotin.
[1] abbreviates: read-out: TCE-3 (3075) (R100A) EC50, binding of TCE-3, anti-CD3 R100A.
Setting [2] is: read-out: TCE-4 (3076) (H101A) EC50, binding of TCE-4, anti-CD3 H101A.
The mark [3] stands for this setting: read-out: TCE-7 (3079) (F104A) EC50, binding of TCE-7, anti-CD3 F104A.
[4] abbreviates: read-out: TCE-13 (3085) (S110A) EC50, binding of TCE-13, anti-CD3 S110A.
The mark [5] stands for this setting: read-out: TCE-14 (3086) (Y111A) EC50, binding of TCE-14, anti-CD3 Y111A.
Where [6] appears, read: read-out: TCE-15 (3087) (W112A) EC50, binding of TCE-15, anti-CD3 W112A.
Where [7] appears, read: read-out: TCE-19 (3091) (W233A) EC50, binding of TCE-19, anti-CD3 W233A.
Setting [8] is: read-out: TCE-24 (3096) (W238A) EC50, binding of TCE-24, anti-CD3 W238A.
Setting [9] is: read-out: TCE-26 (3098) (F240A) EC50, binding of TCE-26, anti-CD3 F240A.
The mark [10] stands for this setting: read-out: TCE-6 (3078) (N103A) EC50, binding of TCE-6, anti-CD3 N103A.

Procedure: Binding was measured in a standard ELISA format. […] Bound TCEs were detected using a standard horse radish peroxidase conjugate secondary antibody. The ELISA signal was plotted versus the log-scale concentration of TCE. The concentrations of TCE required to observe half maximal binding signal (EC50s) were calculated using Graphpad Prism software.

As to `CC(C)C[C@@H]1NC(=O)[C@@H](NC(=O)[C@H](C)NC(=O)[C@H](CO)NC(=O)CN)CSSC[C@@H](C(=O)N2CCC[C@H]2C(=O)N[C@@H](Cc2ccc(O)cc2)C(=O)O)NC(=O)[C@H](C(C)C)NC(=O)[C@H](CCC(=O)O)NC(=O)[C@H](Cc2c[nH]c3ccccc23)NC(=O)[C@H](CCC(=O)O)NC(=O)[C@@H]2CCCN2C(=O)CNC1=O` [Peptide-11], the EC50 under setting [1] turned out to be 0.76 nM; the EC50 under setting [2] stood at 1.05 nM; the EC50 under setting [3] came out at 0.88 nM; the EC50 under setting [4] was 3.82 nM; the EC50 under setting [5] worked out at 95.6 nM; the EC50 under setting [6] is 38.2 nM. In addition, the EC50 came to 6.26 nM under setting [7], 7.08 nM under setting [8] and 9.2 nM under setting [9].

Regarding `CC(C)C[C@@H]1NC(=O)[C@@H](NC(=O)[C@H](CCC(N)=O)NC(=O)[C@H](CO)NC(=O)[C@H](C)N)CSSC[C@@H](C(=O)N2CCC[C@H]2C(=O)N[C@@H](Cc2ccc(O)cc2)C(=O)O)NC(=O)[C@H](C(C)C)NC(=O)[C@H](CCC(=O)O)NC(=O)[C@H](Cc2c[nH]c3ccccc23)NC(=O)[C@H](CCC(=O)O)NC(=O)[C@@H]2CCCN2C(=O)CNC1=O` [Peptide-10], the EC50 under setting [1] was 0.68 nM; the EC50 under setting [2] stood at 0.83 nM; the EC50 under setting [10] amounted to 0.36 nM; the EC50 under setting [3] is 0.66 nM; the EC50 under setting [4] worked out at 3.46 nM; the EC50 under setting [5] turned out to be 64.2 nM. Further, the EC50 was found to be 23.4 nM under setting [6], 5.47 nM under setting [7], 5.33 nM under setting [8] and 5.9 nM under setting [9].

For `CSCC[C@H](NC(=O)[C@@H]1CSSC[C@H](NC(=O)[C@H](Cc2ccc(O)cc2)NC(=O)[C@@H](N)C(C)C)C(=O)NCC(=O)N2CCC[C@H]2C(=O)N[C@@H](CCC(=O)O)C(=O)N[C@@H](Cc2ccccc2)C(=O)N[C@@H](CC(=O)O)C(=O)N[C@@H](CCC(=O)O)C(=O)N[C@@H](CO)C(=O)N[C@@H](C(C)C)C(=O)NCC(=O)N1)C(=O)O` [Peptide-3], the EC50 stood at 1.76 nM under setting [1]; 0.2 nM under setting [10]; 0.66 nM under setting [4]; 77.7 nM under setting [5]; 10.5 nM under setting [6]; 6.46 nM under setting [7]. Further, the EC50 is 5.96 nM under setting [8]; 5.78 nM under setting [9]; 0.41 nM (read-out: TCE-28 (3100) EC50, binding of TCE-28).

As to `CSCC[C@H](NC(=O)[C@@H]1CSSC[C@H](NC(=O)[C@H](Cc2ccc(O)cc2)NC(=O)[C@H](C)N)C(=O)NCC(=O)N2CCC[C@H]2C(=O)N[C@@H](CCC(=O)O)C(=O)N[C@@H](Cc2ccccc2)C(=O)N[C@@H](CC(=O)O)C(=O)N[C@@H](CCC(=O)O)C(=O)N[C@@H](CO)C(=O)N[C@@H](C(C)C)C(=O)NCC(=O)N1)C(=O)O` [Peptide-8], the EC50 stood at 1.85 nM under setting [1]; 1.36 nM under setting [2]; 0.76 nM under setting [4]; 76.9 nM under setting [5]; 11.2 nM under setting [6]; 6.43 nM under setting [7]. Moreover, the EC50 reads like this: under setting [8], 5.66 nM; under setting [9], 5.78 nM.

As for `CC(C)C[C@@H]1NC(=O)[C@@H](NC(=O)[C@H](CCC(N)=O)NC(=O)[C@H](CO)NC(=O)CN)CSSC[C@@H](C(=O)N2CCC[C@H]2C(=O)N[C@@H](Cc2ccc(O)cc2)C(=O)O)NC(=O)[C@H](C(C)C)NC(=O)[C@H](CCC(=O)O)NC(=O)[C@H](Cc2c[nH]c3ccccc23)NC(=O)[C@H](CCC(=O)O)NC(=O)[C@@H]2CCCN2C(=O)CNC1=O` [Peptide-2], the EC50 runs as follows: under setting [1], 0.58 nM; under setting [3], 0.63 nM; under setting [4], 3.65 nM; under setting [5], 49.1 nM; under setting [6], 26.4 nM; under setting [7], 6.28 nM. Moreover, the EC50 came out at 6.34 nM under setting [8] and 8.02 nM under setting [9].

For the molecule `CC(C)C[C@@H]1NC(=O)[C@H](CC(=O)O)NC(=O)[C@H](C(C)C)NC(=O)[C@H](CC(C)C)NC(=O)[C@@H](NC(=O)[C@H](CCC(=O)O)NC(=O)[C@@H](N)CO)CSSC[C@@H](C(=O)N[C@@H](Cc2ccc(O)cc2)C(=O)N[C@@H](Cc2c[nH]c3ccccc23)C(=O)O)NC(=O)[C@@H]2CCCN2C(=O)[C@H](CC(=O)O)NC(=O)[C@H](CO)NC(=O)[C@H](CCC(N)=O)NC1=O` [Peptide-5], the EC50 runs as follows: (read-out: TCE-1 (2340) (wt) EC50, binding of TCE-1, wild-type anti-CD3) 0.3 nM; under setting [1], 8.73 nM; under setting [2], 6.94 nM; under setting [10], 1.69 nM; under setting [3], 1.93 nM; under setting [4], 0.95 nM. In addition, the EC50 by setting is: under setting [5], 572 nM; under setting [6], 48.2 nM; under setting [7], 0.35 nM; under setting [8], 0.29 nM; under setting [9], 0.76 nM; (read-out: TCE-27 (3099) EC50, binding of TCE-27) 0.31 nM.

In general, EC50 refers to the concentration needed to bring the measured effect to its halfway point.
